Like-named read-outs stand apart in the source and are kept apart here.
Biological target: CFTR (Homo sapiens, UniProt P13569)
Experiment: Membrane potential dye, Enteroid Assay A
Format: cell-based
Conditions: for Ent. A Max Activity: chloride transport as % of triple combination control (Enteroid Assay A); for EC50: human enteroid cells, 18-24 hours, acute 10 μM forskolin and 300 nM ivacaftor, read-out: Ent. A EC50
How it was run: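 % Activity: chloride transport relative to a 3 μM/3 μM corrector pair plus 300 nM acute potentiator control. Primary human enteroid cells, 18-24 h compound exposure at 37 °C; membrane potential dye (methyl oxonol) fluorescence over 15 min after forskolin (10 μM)/IBMX (100 μM)/Compound III (300 nM) stimulation in chloride-free buffer.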

Chain of CFTR (P13569 with tags, fused parts or gaps DEL508-508): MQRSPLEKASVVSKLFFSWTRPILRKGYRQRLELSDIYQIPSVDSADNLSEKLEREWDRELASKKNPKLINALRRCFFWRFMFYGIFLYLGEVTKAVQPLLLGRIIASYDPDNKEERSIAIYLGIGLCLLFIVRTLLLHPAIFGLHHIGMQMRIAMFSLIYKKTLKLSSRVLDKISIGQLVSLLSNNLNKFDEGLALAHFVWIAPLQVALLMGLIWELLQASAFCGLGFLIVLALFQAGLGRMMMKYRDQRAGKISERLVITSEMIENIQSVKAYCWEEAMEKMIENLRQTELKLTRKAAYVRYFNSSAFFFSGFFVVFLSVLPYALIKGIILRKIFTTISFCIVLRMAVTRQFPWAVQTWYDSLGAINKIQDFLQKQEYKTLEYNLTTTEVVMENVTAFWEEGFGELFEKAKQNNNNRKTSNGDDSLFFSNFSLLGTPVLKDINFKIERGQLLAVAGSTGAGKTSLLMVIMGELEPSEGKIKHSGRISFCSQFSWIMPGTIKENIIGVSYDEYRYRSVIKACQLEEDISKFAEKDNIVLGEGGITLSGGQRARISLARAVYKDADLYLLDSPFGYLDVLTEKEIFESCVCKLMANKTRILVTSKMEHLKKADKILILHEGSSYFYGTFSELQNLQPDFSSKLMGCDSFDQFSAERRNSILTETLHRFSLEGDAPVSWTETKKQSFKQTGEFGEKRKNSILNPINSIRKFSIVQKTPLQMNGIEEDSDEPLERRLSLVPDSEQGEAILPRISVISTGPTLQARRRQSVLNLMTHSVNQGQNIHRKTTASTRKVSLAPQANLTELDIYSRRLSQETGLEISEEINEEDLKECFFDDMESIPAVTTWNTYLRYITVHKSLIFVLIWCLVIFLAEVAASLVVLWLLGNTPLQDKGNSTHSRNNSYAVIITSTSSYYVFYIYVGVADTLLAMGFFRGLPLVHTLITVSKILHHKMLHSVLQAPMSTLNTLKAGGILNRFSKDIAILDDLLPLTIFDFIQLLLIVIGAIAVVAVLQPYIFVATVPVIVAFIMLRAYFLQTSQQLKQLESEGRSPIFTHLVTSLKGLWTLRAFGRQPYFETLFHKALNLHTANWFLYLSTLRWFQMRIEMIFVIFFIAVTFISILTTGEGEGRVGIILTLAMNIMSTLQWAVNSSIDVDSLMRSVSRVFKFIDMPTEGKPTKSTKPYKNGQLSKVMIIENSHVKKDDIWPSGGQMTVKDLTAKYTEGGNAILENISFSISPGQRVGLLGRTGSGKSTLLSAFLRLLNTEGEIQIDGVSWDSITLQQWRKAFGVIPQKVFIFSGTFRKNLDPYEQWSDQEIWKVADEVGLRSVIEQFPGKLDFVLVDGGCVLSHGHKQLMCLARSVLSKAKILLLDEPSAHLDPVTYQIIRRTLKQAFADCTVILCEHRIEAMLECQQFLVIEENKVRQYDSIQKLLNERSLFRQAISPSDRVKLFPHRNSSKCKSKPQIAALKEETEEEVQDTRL

Ent. A Max Activity (Table 6)	EC50 (Table 6)	Ent. A Max Activity (Table 7)	EC50 (Table 7)	SMILES
+++ (+++ is >60%)	< 1000 nM	–	–	COc1cccc(CN2C(=O)c3cccc(c3)S(=O)(=O)Nc3nc(cc(-c4c(C)cccc4C)n3)OC[C@H]2CC(C)C)n1 [Compound 423]
+++ (+++ is >60%)	< 1000 nM	–	–	COCCOCCN1C(=O)c2cccc(c2)S(=O)(=O)Nc2nc(cc(-c3c(C)cccc3C)n2)OC[C@H]1CC(C)C [Compound 424]
+++ (+++ is >60%)	< 1000 nM	–	–	Cc1cccc(C)c1-c1cc2nc(n1)NS(=O)(=O)c1cccc(c1)C(=O)N(Cc1ccc(C(C)(C)C)cc1)[C@H](CC(C)C)CO2 [Compound 425]
+++ (+++ is >60%)	1000 to 3000 nM	–	–	Cc1cccc(C)c1-c1cc2nc(n1)NS(=O)(=O)c1cccc(c1)C(=O)N(CC1CCN(C)CC1)[C@H](CC(C)(C)C)CO2 [Compound 426]
+++ (+++ is >60%)	< 1000 nM	–	–	Cc1cccc(C)c1-c1cc2nc(n1)NS(=O)(=O)c1cccc(c1)C(=O)N(CCOC(C)(C)C)[C@H](CC(C)C)CO2 [Compound 427]
+++ (+++ is >60%)	< 1000 nM	–	–	Cc1cccc(C)c1-c1cc2nc(n1)NS(=O)(=O)c1cccc(c1)C(=O)N(C[C@H]1CCOC(C)(C)C1)[C@H](CC(C)C)CO2 [Compound 428]
+++ (+++ is >60%)	< 1000 nM	–	–	Cc1cccc(C)c1-c1cc2nc(n1)NS(=O)(=O)c1cccc(c1)C(=O)N(CCC(C)(C)C)[C@H](CC(C)C)CO2 [Compound 429]
+++ (+++ is >60%)	< 1000 nM	–	–	Cc1cc(CN2C(=O)c3cccc(c3)S(=O)(=O)Nc3nc(cc(-c4c(C)cccc4C)n3)OC[C@H]2CC(C)C)[nH]n1 [Compound 430]
+++ (+++ is >60%)	< 1000 nM	–	–	Cc1cccc(C)c1-c1cc2nc(n1)NS(=O)(=O)c1cccc(c1)C(=O)N(Cc1cnn(C)c1)[C@H](CC(C)C)CO2 [Compound 432]
–	–	+ (+ is <30%)	–	Cc1cccc(C)c1-c1cc2nc(n1)NS(=O)(=O)c1cccc(c1)C(=O)N(C)C[C@H](c1ccc(-c3ccc(C(C)(C)C)cc3)cn1)O2 [Compound 509]
–	–	+++ (+++ is >60%)	< 1000 nM	Cc1cccc(C)c1-c1cc2nc(n1)NS(=O)(=O)c1cccc(c1)C(=O)N(C)C[C@H](c1ccc(-c3ccc(C(C)(C)C)cc3)cn1)O2 [Compound 510]
+++ (+++ is >60%)	< 1000 nM	–	–	Cc1cccc(C)c1-c1cc2nc(n1)NS(=O)(=O)c1cccc(c1)C(=O)N(C)CC(c1ccc(-c3ccc(C(C)(C)C)cc3)cn1)O2 (centres unmarked) [Compound 511]
+ (+ is <30%)	–	–	–	Cc1cccc(C)c1-c1cc2nc(n1)NS(=O)(=O)c1cccc(c1)C(=O)N(C)[C@@H](CC(C)C)[C@H](c1ccc(C(C)(C)C)nc1)O2 [Compound 512]
+++ (+++ is >60%)	1000 to 3000 nM	–	–	Cc1cccc(C)c1-c1cc2nc(n1)NS(=O)(=O)c1cccc(c1)C(=O)N(C)CC(c1ccc(-c3ccccc3)cn1)O2 (centres unmarked) [Compound 513]
+ (+ is <30%)	3000 to 30000 nM	–	–	Cc1cccc(C)c1-c1cc2nc(n1)NS(=O)(=O)c1cccc(c1)C(=O)N(Cc1ccccc1)C(C(=O)NCc1ccccc1)CO2 (centres unmarked) [Compound 514]
+ (+ is <30%)	1000 to 3000 nM	–	–	Cc1cccc(C)c1-c1cc2nc(n1)NS(=O)(=O)c1cccc(c1)C(=O)N(Cc1ccccc1)C(C(=O)NC1CCCCC1)CO2 (centres unmarked) [Compound 515]
+ (+ is <30%)	–	–	–	Cc1cccc(C)c1-c1cc2nc(n1)NS(=O)(=O)c1cccc(c1)C(=O)N(C)CC(c1ccc(C(N)=O)cc1)O2 (centres unmarked) [Compound 666]

Ent. A Max Activity (Table 6)	EC50 (Table 6)	Ent. A Max Activity (Table 7)	EC50 (Table 7)	SMILES
++ (++ is 30-60%)	1000 to 3000 nM	–	–	Cc1cccc(C)c1-c1cc2nc(n1)NS(=O)(=O)c1cccc(c1)C(=O)N(C)CC(c1ccc(C#N)cc1)O2 (centres unmarked) [Compound 667]
–	–	++ (++ is 30-60%)	1000 to 3000 nM	Cc1cccc(C)c1-c1cc2nc(n1)NS(=O)(=O)c1cccc(c1)C(=O)N(C)CC(c1ccc(C3=CCOCC3)cc1)O2 (centres unmarked) [Compound 670]
–	–	+++ (+++ is >60%)	< 1000 nM	Cc1cccc(C)c1-c1cc2nc(n1)NS(=O)(=O)c1cccc(c1)C(=O)N(C)CC(c1ccc(C3=CCOCC3)cc1)O2 (centres unmarked) [Compound 671]
++ (++ is 30-60%)	< 1000 nM	–	–	Cc1cccc(C)c1-c1cc2nc(n1)NS(=O)(=O)c1cccc(c1)C(=O)N(C)C[C@H](c1ccccc1)O2 [Compound 672]
+ (+ is <30%)	3000 to 30000 nM	–	–	Cc1cccc(C)c1-c1cc2nc(n1)NS(=O)(=O)c1cccc(c1)C(=O)N(C)C[C@H](c1ccccc1)O2 [Compound 673]
++ (++ is 30-60%)	< 1000 nM	–	–	Cc1cccc(C)c1-c1cc2nc(n1)NS(=O)(=O)c1cccc(c1)C(=O)N(C)CC(c1ccc(C3CC3)cc1)O2 (centres unmarked) [Compound 674]
++ (++ is 30-60%)	< 1000 nM	–	–	Cc1cccc(C)c1-c1cc2nc(n1)NS(=O)(=O)c1cccc(c1)C(=O)N(C)CC(c1ccc(C3=CCOCC3)cc1)O2 (centres unmarked) [Compound 675]
++ (++ is 30-60%)	3000 to 30000 nM	–	–	Cc1cccc(C)c1-c1cc2nc(n1)NS(=O)(=O)c1cccc(c1)C(=O)N(C)CC(c1ccc(C3=CCN(C)CC3)cc1)O2 (centres unmarked) [Compound 676]
+++ (+++ is >60%)	< 1000 nM	–	–	Cc1cccc(C)c1-c1cc2nc(n1)NS(=O)(=O)c1cccc(c1)C(=O)N(C)CC(c1ccccc1)O2 (centres unmarked) [Compound 677]
–	–	++ (++ is 30-60%)	< 1000 nM	COc1ccc(CN2C(=O)c3cccc(c3)S(=O)(=O)Nc3nc(cc(-c4c(C)cccc4C)n3)OC[C@H]2CC2(C(F)(F)F)CC2)cc1 [Compound 678]
–	–	+++ (+++ is >60%)	< 1000 nM	COc1ccc(CN2C(=O)c3cccc(c3)S(=O)(=O)Nc3nc(cc(-c4c(C)cccc4C)n3)OC[C@H]2CC2(C(F)(F)F)CC2)cc1 [Compound 679]
–	–	+ (+ is <30%)	< 1000 nM	Cc1cccc(C)c1-c1cc2nc(n1)NS(=O)(=O)c1cccc(c1)C(=O)N(CCC1CCOCC1)[C@H](CC1(C(F)(F)F)CC1)CO2 [Compound 680]
–	–	+++ (+++ is >60%)	< 1000 nM	Cc1cccc(C)c1-c1cc2nc(n1)NS(=O)(=O)c1cccc(c1)C(=O)N(CCC1CCOCC1)[C@H](CC1(C(F)(F)F)CC1)CO2 [Compound 681]
–	–	+ (+ is <30%)	1000 to 3000 nM	CNC(=O)c1ccc(CN2C(=O)c3cccc(c3)S(=O)(=O)Nc3nc(cc(-c4c(C)cccc4C)n3)OC[C@H]2CC2(C(F)(F)F)CC2)cc1 [Compound 682]
–	–	+++ (+++ is >60%)	< 1000 nM	CNC(=O)c1ccc(CN2C(=O)c3cccc(c3)S(=O)(=O)Nc3nc(cc(-c4c(C)cccc4C)n3)OC[C@H]2CC2(C(F)(F)F)CC2)cc1 [Compound 683]
–	–	+++ (+++ is >60%)	< 1000 nM	Cc1cccc(C)c1-c1cc2nc(n1)NS(=O)(=O)c1cccc(c1)C(=O)N(Cc1ccc(N3CCN(C)CC3)nc1)[C@H](CC1(C(F)(F)F)CC1)CO2 [Compound 684]
–	–	+ (+ is <30%)	< 1000 nM	Cc1cccc(C)c1-c1cc2nc(n1)NS(=O)(=O)c1cccc(c1)C(=O)N(CCC(C)(C)C)[C@H](CC1(C(F)(F)F)CC1)CO2 [Compound 686]
